Converted amounts (≈) assume the structure as drawn.
Experiments:
Nocardia asteroides = experiment: MIC agar dilution, aerobic and facultative bacteria; settings: Culture # 5173
B. bivius = experiment: MIC agar dilution, anaerobic bacteria; type: cell-based; settings: Culture # 2483
[1] = tested on: Acinetobacter calcoaceticus; experiment: MIC agar dilution, aerobic and facultative bacteria; settings: Culture # 1845
C. ramosum = experiment: MIC agar dilution, anaerobic bacteria; type: cell-based; settings: Culture # 2482
Fusobacterium nucleatum = experiment: MIC agar dilution, anaerobic bacteria; type: cell-based; settings: Culture # 2478
Streptococcus agalactiae = experiment: MIC agar dilution, aerobic and facultative bacteria; settings: Culture # 1670
E. coli = experiment: as above; type: cell-based
Veillonella parvula = experiment: MIC agar dilution, anaerobic bacteria; type: cell-based; settings: Culture # 2479
Candida albicans = experiment: MIC agar dilution, aerobic and facultative bacteria; settings: Culture # 3622
Mycobacterium smegmatis = experiment: as above; settings: Culture # 5171
P. species = experiment: MIC agar dilution, anaerobic bacteria; type: cell-based; settings: Culture # 1776
Pseudomonas aeruginosa = experiment: MIC agar dilution, aerobic and facultative bacteria
P. cepacia = experiment: as above; settings: Culture # 1684
Fusobacterium species = experiment: MIC agar dilution, anaerobic bacteria; type: cell-based; settings: Culture # 1770
Propionibacterium acnes = experiment: MIC agar dilution, anaerobic bacteria; type: cell-based; settings: Culture # 1775
Micrococcus luteus = experiment: MIC agar dilution, aerobic and facultative bacteria
B. loescheii = experiment: MIC agar dilution, anaerobic bacteria; type: cell-based; settings: Culture # 1767
S. epidermidis = experiment: MIC agar dilution, aerobic and facultative bacteria; settings: Culture # 1666
Bacteriodes fragilis = experiment: MIC agar dilution, anaerobic bacteria; type: cell-based
B. thetaiotaomicron = experiment: MIC agar dilution, anaerobic bacteria; type: cell-based
Staphylococcus aureus = experiment: MIC agar dilution, aerobic and facultative bacteria
P. anaerobius = experiment: MIC agar dilution, anaerobic bacteria; type: cell-based; settings: Culture # 1780
P. magnus = experiment: MIC agar dilution, anaerobic bacteria; type: cell-based; settings: Culture # 1778
[2] = tested on: Peptostreptococcus asaccharolyticus; experiment: MIC agar dilution, anaerobic bacteria; type: cell-based; settings: Culture # 1777
Klebsiella pneumoniae = experiment: MIC agar dilution, aerobic and facultative bacteria; settings: Culture # 2518
Enterobacter aerogenes = experiment: as above; settings: Culture # 1677
S. pyogenes = experiment: as above
Clostridium perfringens = experiment: microbe, parasite or virus in culture; type: cell-based
Enterococcus faecium = experiment: MIC agar dilution, aerobic and facultative bacteria; settings: Culture # 1668
Streptococcus bovis = experiment: as above; settings: Culture # 1699
B. vulgatus = experiment: MIC agar dilution, anaerobic bacteria; type: cell-based
B. disiens = experiment: MIC agar dilution, anaerobic bacteria; type: cell-based; settings: Culture # 1763
C. difficile = experiment: MIC agar dilution, anaerobic bacteria; type: cell-based
Providencia stuartii = experiment: MIC agar dilution, aerobic and facultative bacteria; settings: Culture # 1831

## CCc1c(Cl)c(O)c(Cl)c(O)c1C(=O)O[C@H]1[C@H](O)[C@H](OC)[C@H](OC/C2=C\C=C\C[C@H](O)/C(C)=C/[C@H](CC)[C@@H](O[C@@H]3OC(C)(C)[C@@H](OC(=O)C(C)C)[C@H](O)[C@@H]3O)/C(C)=C/C(C)=C/C[C@@H]([C@@H](C)O)OC2=O)O[C@@H]1C [Tiacumicin B, tiacumicin B]
Nocardia asteroides
  MIC: 0.39 µg/mL (≈ 0.369 µM)
B. bivius
  MIC: 128 µg/mL (≈ 121 µM)
[1]
  MIC: > 100 µg/mL
C. ramosum
  MIC: > 128 µg/mL
Fusobacterium nucleatum
  MIC: > 128 µg/mL
Streptococcus agalactiae
  MIC: 12.5 µg/mL (≈ 11.8 µM)
E. coli; DC-2, Culture # 1674
  MIC: > 100 µg/mL
E. coli; H560, Culture # 1675
  MIC: > 100 µg/mL
E. coli; Juhl, Culture # 1673
  MIC: > 100 µg/mL
E. coli; KNK437, Culture # 1676
  MIC: > 100 µg/mL
E. coli; SS, Culture # 2489
  MIC: > 100 µg/mL
Veillonella parvula
  MIC: 64 µg/mL (≈ 60.5 µM)
Candida albicans
  MIC: > 100 µg/mL
Mycobacterium smegmatis
  MIC: 12.5 µg/mL (≈ 11.8 µM)
P. species
  MIC: 32 µg/mL (≈ 30.2 µM)
Pseudomonas aeruginosa; Culture # 1679
  MIC: > 100 µg/mL
Pseudomonas aeruginosa; Culture # 1680
  MIC: > 100 µg/mL
Pseudomonas aeruginosa; Culture # 1681
  MIC: > 100 µg/mL
Pseudomonas aeruginosa; Culture # 1682
  MIC: 12.5 µg/mL (≈ 11.8 µM)
Pseudomonas aeruginosa; cipro R, Culture # 1919
  MIC: > 100 µg/mL
Pseudomonas aeruginosa; cipro R, Culture # 1920
  MIC: > 100 µg/mL
P. cepacia
  MIC: > 100 µg/mL
Fusobacterium species
  MIC: > 128 µg/mL
Propionibacterium acnes
  MIC: 4 µg/mL (≈ 3.78 µM)
Micrococcus luteus; Culture # 2493
  MIC: 0.1 µg/mL (≈ 0.0945 µM)
Micrococcus luteus; Culture # 2517
  MIC: 0.2 µg/mL (≈ 0.189 µM)
B. loescheii
  MIC: 64 µg/mL (≈ 60.5 µM)
S. epidermidis
  MIC: 3.1 µg/mL (≈ 2.93 µM)
Bacteriodes fragilis; Culture # 1756, Wilkins-Chalgren agar, 37° C., 48 hours
  MIC: > 128 µg/mL
Bacteriodes fragilis; Culture # 1757
  MIC: > 128 µg/mL
Bacteriodes fragilis; Culture # 1758
  MIC: > 128 µg/mL
Bacteriodes fragilis; Culture # 1999
  MIC: > 128 µg/mL
B. thetaiotaomicron; Culture # 1764
  MIC: > 128 µg/mL
B. thetaiotaomicron; Culture # 1765
  MIC: > 128 µg/mL
B. thetaiotaomicron; Culture # 1766
  MIC: > 128 µg/mL
Staphylococcus aureus; Culture # 1662, brain heart infusion agar, 37° C., 20 hours
  MIC: 6.2 µg/mL (≈ 5.86 µM)
Staphylococcus aureus; Culture # 1664
  MIC: 6.2 µg/mL (≈ 5.86 µM)
Staphylococcus aureus; Culture # 1690
  MIC: 12.5 µg/mL (≈ 11.8 µM)
Staphylococcus aureus; Culture # 2124
  MIC: 6.2 µg/mL (≈ 5.86 µM)
Staphylococcus aureus; Culture # 2130
  MIC: 12.5 µg/mL (≈ 11.8 µM)
Staphylococcus aureus; Culture # 2498
  MIC: 6.2 µg/mL (≈ 5.86 µM)
Staphylococcus aureus; cipro res., Culture # 3384
  MIC: 12.5 µg/mL (≈ 11.8 µM)
P. anaerobius
  MIC: 0.008 µg/mL (≈ 0.00756 µM)
P. magnus
  MIC: 0.5 µg/mL (≈ 0.473 µM)
[2]
  MIC: 1 µg/mL (≈ 0.945 µM)
Klebsiella pneumoniae
  MIC: > 100 µg/mL
Enterobacter aerogenes
  MIC: > 100 µg/mL
S. pyogenes; Culture # 1671
  MIC: 25 µg/mL (≈ 23.6 µM)
S. pyogenes; const., Culture # 1672
  MIC: 3.1 µg/mL (≈ 2.93 µM)
S. pyogenes; inducible, Culture # 2548
  MIC: 6.2 µg/mL (≈ 5.86 µM)
Clostridium perfringens; Culture # 1771
  MIC: 0.008 µg/mL (≈ 0.00756 µM)
Clostridium perfringens; Culture # 1772
  MIC: 0.03 µg/mL (≈ 0.0284 µM)
Clostridium perfringens; Culture # 1773
  MIC: 0.008 µg/mL (≈ 0.00756 µM)
Enterococcus faecium
  MIC: 6.2 µg/mL (≈ 5.86 µM)
Streptococcus bovis
  MIC: 25 µg/mL (≈ 23.6 µM)
B. vulgatus; Culture # 1762
  MIC: > 128 µg/mL
B. vulgatus; Culture # 2481
  MIC: > 128 µg/mL
B. disiens
  MIC: 32 µg/mL (≈ 30.2 µM)
C. difficile; Culture # 1496
  MIC: 0.06 µg/mL (≈ 0.0567 µM)
C. difficile; Culture # 1497
  MIC: 0.06 µg/mL (≈ 0.0567 µM)
C. difficile; Culture # 1774
  MIC: 0.03 µg/mL (≈ 0.0284 µM)
C. difficile; Culture # 2025
  MIC: 0.06 µg/mL (≈ 0.0567 µM)
C. difficile; Culture # 2480
  MIC: 0.06 µg/mL (≈ 0.0567 µM)
C. difficile; Culture # 2528
  MIC: 0.06 µg/mL (≈ 0.0567 µM)
C. difficile; Culture # 2529
  MIC: 0.06 µg/mL (≈ 0.0567 µM)
Providencia stuartii
  MIC: > 100 µg/mL

Source: US5583115A, “Dialkyltiacumicin compounds” (Abbott Laboratories, priority 1995, dated 1996)
